The text below walks through data of patent publication US10189863B2, “5,6-dihydro-4H-benzo[b]thieno-[2,3-d]azepine derivatives” (PULMOCIDE LIMITED, priority 2014, dated 2019).

SMILES strings stand for the structures. Some results are limits rather than exact numbers.

In data set [1] the test system is RSV B Washington strain. Nature of the data set: Assessment of RSV induced CPE in HEp2 cells (RSV B Washington strain). It is filed as cell-based. Conditions: human respiratory syncytial virus, HEp2 cells; for IC50: HEp-2, 144 h, 1 MOI, 6 days, read-out: RSV B CPE IC50; for inhibition at 1 µg/mL: HEp-2, Inhibition (%) at 1 μg/mL, read-out: RSV B CPE % Inhibition. The method in brief: (§1)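 HEp2 cells were infected at MOI 1 with RSV A2 or RSV B Washington, with compound added at the same time (0.5% DMSO final). Incubation was 5 days for A2 and 6 days for B, then viability was read by resazurin fluorescence (545/590 nm) after 6 h. IC50, IC75 and IC90 came from concentration-response curves.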

The test system of data set [2] is RSV A2 strain. Nature of the data set: Assessment of RSV induced CPE in HEp2 cells (RSV A2 strain). Format: cell-based. Conditions: human respiratory syncytial virus, HEp2 cells; for IC50: HEp-2, 120 h, 1 MOI, 5 days, read-out: RSV A2 CPE IC50; for inhibition at 0.01 µg/mL / inhibition at 0.1 µg/mL: HEp-2; for inhibition at 0.01 µg/mL: Inhibition (%) at 0.01 μg/mL; for inhibition at 0.1 µg/mL: Inhibition (%) at 0.1 μg/mL, read-out: RSV A2 CPE % Inhibition. The method in brief:
as §1

The nature of data set [3]: Cell viability: resazurin assay. It is filed as cell-based, human. Conditions: human, HEp2 cells. The method in brief: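 HEp2 cells in 5% FBS DMEM exposed to compounds (0.5% DMSO final) for 5 days at 37 °C/5% CO2, then resazurin added for 6 h; fluorescence read at 545/590 nm. Percent viability loss calculated versus 0.5% DMSO vehicle, with increases shown as negative values; CC50 taken from concentration-response curves where appropriate.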
A general note: Resazurin is reduced to fluorescent resorufin, in cell work by metabolically active cells.

For the compound `Cc1cccc(F)c1NC(=O)c1cc2c(s1)-c1ccccc1N(C(=O)c1ccc(NC(=O)c3cc4c(nc3N3CC5(CCOCC5)C3)CCOC4)cc1)CC2` [Example 12, N-(4-(2-((2-Fluoro-6-methylphenyl)carbamoyl)-5,6-dihydro-4H-benzo[b]thieno[2,3-d]azepine-6-carbonyl)phenyl)-2-(7-oxa-2-azaspiro[3.5]nonan-2-yl)-7,8-di hydro-5H-pyrano[4,3-b]pyridine-3-carboxamide], in data set [1], the IC50 was found to be 1.3 nM and the inhibition at 1 µg/mL came to 98%. In data set [2], the IC50 came to 0.42 nM and the inhibition at 0.01 µg/mL was 100%. Also, the CC50 at 5 days in data set [3] was more than 13200 nM.
In the same order, the values of `COCCOc1cccc(F)c1NC(=O)c1cc2c(s1)-c1ccccc1N(C(=O)c1ccc(NC(=O)c3cc(C)cnc3N3CC4(CCOCC4)C3)cc1)CC2` [Example 55, N-(2-fluoro-6-(2-methoxyethoxy)phenyl)-6-(4-(5-methyl-2-(7-oxa-2-azaspiro[3.5]nonan-2-yl)nicotinamido)benzoyl)-5,6-dihydro-4H-benzo[b]thieno[2,3-d]azepine-2-carboxamide] are 16.2 nM, 100%, 0.15 nM, 100% and more than 12900 nM.
Turning to `Cc1cnc(N2CC3(CCOCC3)C2)c(C(=O)Nc2ccc(C(=O)N3CCc4cc(C(=O)Nc5c(F)cccc5C(F)(F)F)sc4-c4ccccc43)cc2)c1` [Example 63, N-(2-fluoro-6-(trifluoromethyl)phenyl)-6-(4-(5-methyl-2-(7-oxa-2-azaspiro[3.5]nonan-2-yl)nicotinamido)benzoyl)-5,6-dihydro-4H-benzo[b]thieno[2,3-d]azepine-2-carboxamide], in data set [1], the half-maximal inhibitory concentration (IC50) stood at 1.6 nM and the inhibition at 1 µg/mL amounted to 100%. In data set [2], the half-maximal inhibitory concentration (IC50) is 0.058 nM and the inhibition at 0.01 µg/mL is 95%. In addition, in data set [3], the CC50 at 5 days is more than 13000 nM.
With `Cc1cccc(F)c1NC(=O)c1cc2c(s1)-c1ccccc1N(C(=O)c1ccc(NC(=O)c3cc(C4CC4)cnc3N3CC4(CCOCC4)C3)cc1)CC2` [Example 11, 6-(4-(5-Cyclopropyl-2-(7-oxa-2-azaspiro[3,5]nonan-2-yl)nicotinamido)benzoyl)-N-(2-fluoro-6-methylphenyl)-5,6-dihydro-4H-benzo[b]thieno[2,3-d]azepine-2-carboxamide], in data set [1], the IC50 was found to be 25.9 nM and the inhibition at 1 µg/mL is 95%. In data set [2], the IC50 came out at 0.28 nM and the inhibition at 0.1 µg/mL is 93%. Also, the CC50 at 5 days in data set [3] was more than 13500 nM.
In the case of `C#Cc1ccc(NC(=O)c2cc3c(s2)-c2ccccc2N(C(=O)c2ccc(NC(=O)c4cccnc4N4CC5(CCOCC5)C4)cc2)CC3)cc1` [Example 18, 6-(4-(2-(7-oxa-2-azaspiro[3.5]nonan-2-yl)nicotinamido)benzoyl)-N-(4-ethynylphenyl)-5,6-dihydro-4H-benzo[b] thieno[2,3-d]azepine-2-carboxamide], in data set [1], the IC50 was more than 1440 nM and the inhibition at 1 µg/mL was found to be 18%. For the same compound, in data set [2], the IC50 turned out to be 0.16 nM and the inhibition at 0.1 µg/mL came out at 75%. The compound further gave a CC50 at 5 days in data set [3] of more than 14400 nM.
In the same order, the values of `Cc1cnc(N2CC3(CCOCC3)C2)c(C(=O)Nc2ccc(C(=O)N3CCc4cc(C(=O)Nc5c(F)cc(F)cc5F)sc4-c4ccccc43)cc2)c1` [Example 48, 6-(4-(5-methyl-2-(7-oxa-2-azaspiro[3.5]nonan-2-yl)nicotinamido)benzoyl)-N-(2,4,6-trifluorophenyl)-5,6-dihydro-4H-benzo[b]thieno[2,3-d]azepine-2-carboxamide] are 1.5 nM, 100%, 0.14 nM, 100% and more than 13600 nM.
As for `COc1cccc(F)c1NC(=O)c1cc2c(s1)-c1ccccc1N(C(=O)c1ccc(NC(=O)c3cc(C)cnc3N3CC4(CCOCC4)C3)cc1)CC2` [Example 53, N-(2-fluoro-6-methoxyphenyl)-6-(4-(5-methyl-2-(7-oxa-2-azaspiro[3.5]nonan-2-yl)nicotinamido)benzoyl)-5,6-di-hydro-4H-benzo[b]thieno[2,3-d]azepine-2-carboxamide], in data set [1], the IC50 stood at 14.6 nM and the inhibition at 1 µg/mL stood at 96%. In data set [2], the IC50 turned out to be 0.23 nM and the inhibition at 0.1 µg/mL was 94%. Further, the CC50 at 5 days in data set [3] is more than 13700 nM.
Turning to `O=C(Nc1c(F)cccc1Cl)c1cc2c(s1)-c1ccccc1N(C(=O)c1ccc(NC(=O)c3cccnc3N3CC4(CCOCC4)C3)cc1F)CC2` [Example 31, 6-(4-(2-(7-oxa-2-azaspiro[3.5]nonan-2-yl)nicotinamido)-2-fluorobenzoyl)-N-(2-chloro-6-fluorophenyl)-5,6-dihydro-4H-benzo[b]thieno[2,3-d]azepine-2-carboxamide], in data set [1], the IC50 was 49.6 nM and the inhibition at 1 µg/mL was 90%. Moreover, in data set [2], the IC50 was found to be 0.1 nM and the inhibition at 0.1 µg/mL was found to be 100%. The compound also returned a CC50 at 5 days in data set [3] of more than 13500 nM.
In the same order, the values of `Cc1ccc(NC(=O)c2cc3c(s2)-c2ccccc2N(C(=O)c2ccc(NC(=O)c4cccnc4N4CC5(CCOCC5)C4)cc2)CC3)c(F)c1` [Example 22, 6-(4-(2-(7-oxa-2-azaspiro[3.5]nonan-2-yl)nicotinamido)benzoyl)-N-(2-fluoro-4-methylphenyl)-5,6-dihydro-4H-benzo[b]thieno[2,3-d]azepine-2-carboxamide] are 37.3 nM, 77%, 0.96 nM, 96% and more than 14200 nM.
In the same order, the values of `Cc1cnc(N2CC3(CCOCC3)C2)c(C(=O)Nc2ccc(C(=O)N3CCc4cc(C(=O)Nc5ccccc5Cl)sc4-c4ccccc43)cc2)c1` [Example 34, N-(2-chlorophenyl)-6-(4-(5-methyl-2-(7-oxa-2-azaspiro [3.5]nonan-2-yl)nicotinamido)benzoyl)-5,6-dihydro-4H-benzo[b]thieno[2,3-d]azepine-2-carboxamide] are 38.5 nM, 86%, 0.11 nM, 100% and more than 13900 nM.
In the same order, the values of `Cc1cnc(N2CC3(CCOCC3)C2)c(C(=O)Nc2ccc(C(=O)N3CCc4cc(C(=O)Nc5ccccc5)sc4-c4ccccc43)cc2)c1` [Example 32, 6-(4-(5-methyl-2-(7-oxa-2-azaspiro[3.5]nonan-2-yl)nicotinamido)benzoyl)-N-phenyl-5,6-dihydro-4H-benzo[b] thieno[2,3-d]azepine-2-carboxamide] are 38.2 nM, 81%, less than 0.015 nM, 100% and more than 14600 nM.
Regarding `Cc1cnc(N2CC3(CCOCC3)C2)c(C(=O)Nc2ccc(C(=O)N3CCc4cc(C(=O)Nc5c(C)cccc5C)sc4-c4ccccc43)cc2)c1` [Example 64, N-(2,6-dimethylphenyl)-6-(4-(5-methyl-2-(7-oxa-2-aza-spiro[3.5]nonan-2-yl)nicotinamido)benzoyl)-5,6-dihydro-4H-benzo[b]thieno[2,3-d]azepine-2-carboxamide], in data set [1], the IC50 came out at 1.1 nM and the inhibition at 1 µg/mL came out at 100%. In data set [2], the IC50 is 0.25 nM and testing at 0.01 µg/mL gave an inhibition of 100%. This compound also gave a CC50 at 5 days in data set [3] of more than 14000 nM.
On to `Cc1cnc(N2CCC3(CC2)COC3)c(C(=O)Nc2ccc(C(=O)N3CCc4cc(C(=O)Nc5c(F)cccc5F)sc4-c4ccccc43)cc2)c1` [Example 92, N-(2,6-difluorophenyl)-6-(4-(5-methyl-2-(2-oxa-7-aza-spiro[3.5]nonan-7-yl)nicotinamido)benzoyl)-5,6-dihydro-4H-benzo[b]thieno[2,3-d]azepine-2-carboxamide], for which, in data set [1], the IC50 was 60.8 nM and the inhibition at 1 µg/mL stood at 100%. In addition, in data set [2], the IC50 came out at 0.17 nM and testing at 0.01 µg/mL gave an inhibition of 93%. In data set [3], this compound registered a CC50 at 5 days of more than 13900 nM.
On to `CCc1cnc(N2CC3(CCOCC3)C2)c(C(=O)Nc2ccc(C(=O)N3CCc4cc(C(=O)Nc5c(C)cccc5F)sc4-c4ccccc43)cc2)c1` [Example 60, 6-(4-(5-ethyl-2-(7-oxa-2-azaspiro[3.5]nonan-2-yl)nicotinamido)benzoyl)-N-(2-fluoro-6-methylphenyl)-5,6-dihydro-4H-benzo[b]thieno[2,3-d]azepine-2-carboxamide], for which, in data set [1], the half-maximal inhibitory concentration (IC50) turned out to be 9.5 nM and the inhibition at 1 µg/mL is 100%. In data set [2], the IC50 was determined as 0.14 nM and the inhibition at 0.1 µg/mL was determined as 92%. The compound also came in with a cytotoxic concentration (CC50) at 5 days in data set [3] of more than 13700 nM.
On to `O=C(Nc1ccc(F)cc1F)c1cc2c(s1)-c1ccccc1N(C(=O)c1ccc(NC(=O)c3cccnc3N3CC4(CCOCC4)C3)cc1)CC2` [Example 20, 6-(4-(2-(7-oxa-2-azaspiro[3.5]nonan-2-yl)nicotinamido)benzoyl)-N-(2,4-difluorophenyl)-5,6-dihydro-4H-benzo[b] thieno[2,3-d]azepine-2-carboxamide], for which, in data set [1], the 50% inhibitory concentration (IC50) was 129 nM and the inhibition at 1 µg/mL is 80%. Besides, in data set [2], the IC50 turned out to be 0.36 nM and the inhibition at 0.1 µg/mL is 100%. Moreover, the CC50 at 5 days in data set [3] was more than 14200 nM.

One may read the IC50 as the concentration that gives 50% inhibition. As usually defined, the inhibition is the percentage by which the read-out fell short of the control. One may read the CC50 as the concentration at which the toxic effect on the cells reaches its halfway point. Low readings indicate harm at low concentration, high ones better tolerance by the cells.
